Source: US11606956B2, “4-chloroindole-3-acetic acid for controlling unwanted plants” (PREMIER TECH TECHNOLOGIES LTÉE, priority 2014, dated 2023)

Experiments:
barley = details: cited from earlier work; for quantity sufficient to affect the growth by 50%: barley (monocotyledonous), aqueous solution containing 10% ethanol
turf [1] = experiment: Selectivity: turf impact rating (0-3), spreading applications; type: in vivo; details: for Turf impact rating: 100 mL/m^2, after 50 days
Experimental: Selectivity of the effect: absence of a pronounced effect of the herbicide on the desirable plants assessed based on an impact rating on the latter, varying from 0 to 3 in the case of turf.
(§1) The experiment was conducted using a randomized complete block design. Three repetitions were done for each treatment with surface areas of 0.5 m^2.
(§2) Treatment: 4Cl-IAA without co-ingredient with an application rate of 100 mL/m^2
(§3) Dependent variable: mean damage rating (from 0 to 5) of the dandelion and mean impact rating (from 0 to 3) on the turf assessed after 50 days
The experiment was conducted using a completely randomized design with surface areas of 2 m^2 per treatment.
Dependent variable: impact rating (from 0 to 3) on the turf assessed after 4 and 90 days

plantain = experiment: Plantain control, second targeted application; type: in vivo, Plantago sp.; details: 0.015, 0.023 and 0.030 g/plant; without co-ingredient
Experimental: The experiment was conducted using randomized complete block design. Four repetitions were done for each treatment. Treatment: 4Cl-IAA without co-ingredient at three doses, i.e., 0.015, 0.023 and 0.030 g/plant Dependent variable: mean mortality percentage

[2] = Storage stability of finished product; type: physicochemical; details: finished product incorporating the molecule; room temperature
dandelion [3] = experiment: Dandelion control, spreading applications (damage rating 0-5); type: in vivo, Taraxacum officinale; details: 100 mL/m^2, after 50 days
Experimental: (§4) Control: eradication of weeds assessed, after a certain length of time, based on a visible damage rating of the foliage, varying from 0 to 5, and/or the mortality percentage observed on the treated plants.
as §1, §2, §3

[4] = Peroxide deterioration tests; type: physicochemical
[5] = test system: dicotyledonous weed species; experiment: Weed species controlled with targeted applications (Example 10); type: in vivo; details: 0.022 to 0.036 g/plant; after 21 to 40 days depending on the species; weed species of Table 4
Experimental: The experiments were conducted according to completely randomized design and randomized complete block design with targeted applications for weed control on various terrain covered in turf.
Treatment: 4Cl-IAA without co-ingredient with doses varying from 0.022 to 0.036 g/plant
Variables: Observation of a damage rating above 4 and a mortality percentage above 80%, assessed after a period of 21 to 40 days, depending on the species.

turf [6] = experiment: Selectivity: turf impact rating (0-3), targeted applications; type: in vivo; details: doses below 0.1 g/plant; without co-ingredient; after 7 days; rating 0 to 3
Experimental: Selectivity of the effect: absence of a pronounced effect of the herbicide on the desirable plants assessed based on an impact rating on the latter, varying from 0 to 3 in the case of turf. [table] The experiment was conducted using a randomized complete block design. Five repetitions were done for each treatment. Treatment: 4Cl-IAA without co-ingredient Dependent variable: Impact rating (from 0 to 3) on the turf assessed after 7 days.

peas and mustard = details: aqueous solution containing 10% ethanol; cited from earlier work
dandelion [7] = experiment: Dandelion control, targeted applications on turfed terrain (damage rating 0-5, mortality %); type: in vivo, Taraxacum officinale; details: for control efficacy (damage rating and mortality percentage): 0.014 to 0.036 g/plant
Experimental: as §4
The experiment was conducted using a randomized complete block design. Four repetitions were done for each treatment.
Dependent variable: mean damage rating (from 0 to 5) with the variation coefficient assessed after 42 days.
Dependent variable: Mean mortality percentage with the variation coefficient assessed after 42 days.
Treatment: solution of 4Cl-IAA applied at a dose of 0.03 g/plant containing 10% urea as co-ingredient
Dependent variable: mean damage rating (from 0 to 5)
The experiment was conducted using a randomized complete block design. Four repetitions were done for each treatment, except for 4Cl-IAA methyl ester, where three repetitions were done.
Treatment: the applied quantities varied from 0.014 to 0.036 g/plant, except for IAA, where the quantity was higher (0.2 g/plant) in light of the information found in the literature on the effect of the latter.
Dependent variable: mean damage rating (from 0 to 5) and mean mortality percentage assessed between 28 and 35 days after application

[8] = 28 to 35 days after application
[9] = 0.2 g/plant, 28 to 35 days after application

Which “quantity sufficient to affect the growth by 50%” value (barley) does the source give for `O=C(O)COc1ccc(Cl)cc1Cl` [2,4-D, 2,4-dichlorophenoxyacetic acid, reference compound] here?
The value was 0.5 g/m^2.

Which results are given for `O=C(O)Cc1c[nH]c2cccc(Cl)c12` [4Cl-IAA, 4-chloroindole-3-acetic acid]?
impact rating on the turf (turf [1]; dose 0.25 g/m^2, after 4 days): 0; impact rating on the turf (turf [1]; dose 0.25 g/m^2, after 90 days): 0; Turf impact rating (turf [1]; dose 0.3 g/m^2): 0.7; Turf impact rating (turf [1]; dose 0.6 g/m^2): 1.7; impact rating on the turf (turf [1]; dose 0.6 g/m^2, after 4 days): 1; impact rating on the turf (turf [1]; dose 0.6 g/m^2, after 90 days): 0; impact rating on the turf (turf [1]; dose 0.9 g/m^2, after 4 days): 1; impact rating on the turf (turf [1]; dose 0.9 g/m^2, after 90 days): 0; Turf impact rating (turf [1]; dose 1.0 g/m^2): 1.7; impact rating on the turf (turf [1]; dose 1.0 g/m^2, after 4 days): 2; impact rating on the turf (turf [1]; dose 1.0 g/m^2, after 90 days): 0; Turf impact rating (turf [1]; dose 1.2 g/m^2): 2.0; impact rating on the turf (turf [1]; dose 1.2 g/m^2, after 4 days): 3; impact rating on the turf (turf [1]; dose 1.2 g/m^2, after 90 days): 0; control efficacy (mean mortality percentage), effect of a second application (plantain): pronounced improvement in the control efficacy; stability in storage [2]: stability over two years; Dandelion damage rating (dandelion [3]; dose 0.3 g/m^2): 3.0; Dandelion damage rating (dandelion [3]; dose 0.6 g/m^2): 4.1; Dandelion damage rating (dandelion [3]; dose 1.0 g/m^2): 3.8; Dandelion damage rating (dandelion [3]; dose 1.2 g/m^2): 3.9; stability in peroxide deterioration tests [4]: a certain stability; damage rating [5]: above 4; mortality percentage [5]: above 80%; turf impact (turf [6]): zero to acceptable; quantity sufficient to affect the growth by 50% (barley): 0.17 g/m^2; sensitivity of the monocotyledonous plant compared with 2,4-D (barley; barley): three times higher; impact on the growth of dicotyledonous plants compared to 2,4-D (peas and mustard): about 4 times lower; control efficacy (damage rating and mortality percentage) (dandelion [7]; [8]): control efficacies close to those observed with a 2,4-D-based herbicide; damage rating (dandelion [7]; after 3 days, solution containing 0.45% of 4Cl-IAA, rating 0 to 5): only a small effect; damage rating for dandelion control (dandelion [7]; after 35 days, solution containing 0.45% of 4Cl-IAA, rating 0 to 5): 5; damage rating on dandelions (dandelion [7]; dose 0.0075 g per plant, without vs with chelating agent (HEDTA or EDDS), rating 0 to 5): 3.1; decrease of the mortality percentage (dandelion [7]; doses below 0.01 g/plant, without co-ingredient, after 42 days): about 50%

Which results are given for `O=C(O)Cc1c[nH]c2ccccc12` [IAA, indole-3-acetic acid]?
mean damage rating (dandelion [7]; [9]): interesting damage rating; mean mortality percentage (dandelion [7]; [9]): low mortality percentage

Which “control efficacy (damage rating and mortality percentage)” value (dandelion [7]; [8]) does the source give for `COC(=O)Cc1c[nH]c2cccc(Cl)c12` [methyl ester of 4Cl-IAA] here?
Its value is “control efficacies close to those observed with a 2,4-D-based herbicide”.
